Tests used:
[1] = Adverse side effects, intolerances, incompatibilities in treated subjects and patients; assay type: in vivo, human; conditions: for adverse effects of earlier or basic treatment (patient history): Patient 7, rheumatoid arthritis/synovitis; for earlier treatment with TNF-α inhibitors (patient history): Patient 12, ankylosing spondylitis
[2] = system: inflammatory disease, immunological disease and/or autoimmunological disease; experiment: Treatment of patients: condition as stated by patient and physician (pain, fatigue, daily life, duration of effect, relapses); assay type: in vivo, human
Method: All patients treated in the following Inventive Examples, Reference Examples and Comparative Examples were selected solely based on their diagnosis without performing a preselection in view of other parameters.
Annotation to the Tables 8A and B and 9 to 10: Patients were usually examined and treated in the same session. The success of the treatment or the effect thereof was then determined in the following session, usually one week later, and the next treatment performed as indicated in the tables.

perfusion of the skin = conditions: cited from earlier work

Molecule | adverse effects of earlier or basic treatment (patient history) [1] | earlier treatment with TNF-α inhibitors (patient history) [1] | other results
CC[C@@H]1CN(C(=O)NCC(F)(F)F)C[C@@H]1c1cnc2cnc3[nH]ccc3n12 [upadacitinib] | severe adverse effects (tendency to fibrosis in the lungs and sinusitis) | – | –
Symponi®: TNF-α inhibitor | – | accompanied by strong adverse side effects and hence, not successful | –
Simponi®: biologic, golimumab | – | – | effect of earlier treatment with biologics (patient's report) ([2]; Patient 11, ankylosing spondylitis, within half a year the biologics lost their effect): had little effect from the outset
CCN(CCO)CCCC(C)Nc1ccnc2cc(Cl)ccc12.O=S(=O)(O)O (stereo not shown) [Quensyl®, hydroxychloroquin sulphate] | can cause irreversible eye damage with long-term use | – | –
COC(=O)c1cccnc1 [MN, methyl nicotinate] | – | – | perfusion response of the skin (perfusion of the skin; 50 μl of 20 mmol/l MN topical, healthy subjects, Laser Speckle Contrast Imager): reproducible perfusion response; time course of the perfusion increase (perfusion of the skin; topical application of MN, increase occurs a few minutes after application): reaches a stable plateau phase after five minutes
Remicade®: TNF-α inhibitor | – | accompanied by strong adverse side effects and hence, not successful | –
Enbrel® | – | accompanied by strong adverse side effects and hence, not successful | –
CN(Cc1cnc2nc(N)nc(N)c2n1)c1ccc(C(=O)N[C@@H](CCC(=O)O)C(=O)O)cc1 [MTX, methotrexate] | severe adverse effects (tendency to fibrosis in the lungs and sinusitis) | – | –
tocilizumab: IL-6 inhibitor | – | – | effectiveness of earlier or basic treatment (patient history) ([2]; Patient 7, rheumatoid arthritis/synovitis, before or beside the treatment of IE 7): only partially efficient

Reference: patent publication US20240228570A9, “PLATFORM TECHNOLOGY FOR TREATMENT OF INFLAMMATORY, IMMUNOLOGICAL AND/OR AUTOIMMUNOLOGICAL DISEASES” (ellennbe GmbH, priority 2021, published 2024)
